Patent publication US6967205B1, “Compounds with antibacterial and antiparasitic properties” (New Pharma Research Sweden AB, priority 1999, dated 2005)
Values after ≈ are worked out from the molar mass of the structure shown.

Tests used:
Bacillus cereus = assay: M.I.C. by broth dilution method (NCCLS 1988), gram-positive bacteria; assay type: cell-based; conditions: in vitro broth dilution
How it was run: (§1)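 MIC values were obtained by broth dilution following NCCLS 1988 against gram-positive strains including Bacillus subtilus ATCC 6633, Streptococcus faecium and Staphylococcus ATCC 6538. Enrofloxacin served as reference. Compound stocks were 1 000 μg/ml in aqueous KOH or KOH/DMF.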

Streptococcus faecium = assay: as above; assay type: cell-based; conditions: Enterococcus faecium, in vitro broth dilution, read-out: M.I.C. values Streptoc. faecium
How it was run: as §1

[1] = system: Bacillus subtilus (ATCC 6633); assay: as above; assay type: cell-based; conditions: ATCC6633, in vitro broth dilution
How it was run: as §1

[2] = system: Staph. epidermidis (ATCC 12228); assay: as above; assay type: cell-based; conditions: Staphylococcus epidermidis, ATCC12228, in vitro broth dilution
How it was run: as §1

[3] = system: Staphylococcus (ATCC 6538); assay: as above; assay type: cell-based; conditions: ATCC6538, in vitro broth dilution, read-out: M.I.C. values Staph. (ATCC 6538)
How it was run: as §1

[4] = system: Micrococcus Luteus (ATCC 9341); assay: as above; assay type: cell-based; conditions: ATCC9341, in vitro broth dilution, read-out: M.I.C. values Microc. Luteus
How it was run: as §1

[5] = system: Staph. aureus (ATCC 29737); assay: as above; assay type: cell-based; conditions: Staphylococcus aureus, ATCC29737, in vitro broth dilution
How it was run: as §1

gram-positive bacteria = assay: Antibacterial activity against gram-positive bacteria, overall comparison with enrofloxacin; assay type: cell-based; conditions: seven gram-positive strains of Table 6
Procedure: (§2) The antibacterial activity of the present compounds was investigated by in vitro evaluation of their M.I.C. (Minimum Inhibitory Concentration) values. The evaluation was conducted in complete accordance with the “Broth dilution method”, as outlined by the U.S. National Committee for Clinical Laboratory Standards “NCCLS 1988”.
(§3) Solutions of the present compounds were prepared by dissolving 0.01 g of a test compound in either 10% KOH (aq) or a 10% KOH/DMF mixture, after which sterile, distilled H2O was added up to a total volume of 10 ml, thereby yielding a test compound concentration of 1 000 μg/ml.
In this evaluation, the antibacterial activity of the present compounds and enrofloxacin as reference compound was tested against seven strains of gram-positive bacteria, namely Bacillus subtilus (ATCC 6633), Bacillus cereus, Streptococcus faecium, Micrococcus Luteus (ATCC 9341), Staph. aureus (ATCC 29737), Staph. epidermidis (ATCC 12228) and Staphylococcus (ATCC 6538).

[6] = system: E. mitis, E. hagani, E. praecox, E. acervulina, E. maxima, E. necatrix, E. tenella and E. brunetti; assay: Prophylactic anticoccidial effect in chickens of Arbor Aker breed (8 Eimeria strains); assay type: in vivo; conditions: 100 ppm in feed from day 3, infected day 7
Procedure: JA 12, JA 39 and JA 42 was also evaluated in chickens of Arbor Aker breed. These trials were conducted by using basically the same test protocol as that used for the chickens of Habbared X breed, albeit with the following modifications:
• i) On day 3 after hatch, the tested groups of chickens received feed containing 100 ppm of JA 12, JA 39, JA 42 or Coxistac (60 ppm); • ii) On day 7 after hatch, the chickens were infected orally by oocysts containing a mixture of 8 mature sporulated strains, namely E. mitis, E. hagani, E. praecox, E. acervulina, E. maxima, E. necatrix, E. tenella and E. brunetti.

[7] = system: gram-negative bacteria (E. coli, KL. Pnemonia, Bordetella bronchiseptic, Salmonella typhi, Salmonella spp., Proteus spp., Pasterulla Duck, Pasterulla Camel); assay: M.I.C. by broth dilution method, gram-negative bacteria; assay type: cell-based; conditions: eleven gram-negative strains
Procedure: as §2, §3
In the same manner as above, the M.I.C. values of the present compounds JA 3, JA 5, JA 12, JA 42, JA 73 and enrofloxacin as reference compound were investigated also on gram-negative bacteria. The gram-negative bacteria used were E. coli (ATCC 25922), E. Coli (ATCC 8739), E. Coli (ATCC 10536), E. Coli Pathogenic, KL. Pnemonia (ATCC 10031), Bordetella bronchiseptic (ATCC 4617), Salmonella typhi, Salmonella spp., Proteus spp., Pasterulla Duck and Pasterulla Camel.

M. gallisepticum = assay: M.I.C. against Mycoplasma in microtitre plates (Tanner and Wu); assay type: cell-based; conditions: Mycoplasmoides gallisepticum; in vitro, microtitre plates
Procedure: The M.I.C. values of the compounds JA 1, JA 3, JA 5, JA 12, JA 42 and JA 43 were determined in vitro against M. gallisepticum. Enrofloxacin, tylosin and oxytetracyclin were used as reference compounds. The tested compounds were all stored and applied as solutions in distilled water. The M.I.C. evaluation was performed in microtitre plates, and the methodology employed was basically that of Tanner and Wu (Avian Disease, 36:714-717 (1992)).

[8] = system: Eimeria acervulina, E. maxima, E. necatrix, E. tenella and E. brunetti; assay: Prophylactic anticoccidial activity in chickens of Habbared X breed (5 Eimeria strains); assay type: in vivo; conditions: for anticoccidial effect (in words): chickens of Habbared X breed, 100 ppm in feed; for Average number of Eimeria spp. oocysts/g faeces, day after hatch 14: day 14 after hatch; for Average number of Eimeria spp. oocysts/g faeces, day after hatch 14 / Average number of Eimeria spp. oocysts/g faeces, day after hatch 15 / Average number of Eimeria spp. oocysts/g faeces, day after hatch 16 / Average number of Eimeria spp. oocysts/g faeces, day after hatch 17 / Average number of Eimeria spp. oocysts/g faeces, day after hatch 18 / Average number of Eimeria spp. oocysts/g faeces, day after hatch 19 / Average number of Eimeria spp. oocysts/g faeces, day after hatch 21 / Mean body weight / Mean amount of feed consumed / Average number of Eimeria spp. oocysts/g faeces, Total: drug in feed (JA 39, JA 42 100 ppm; Coxistac 60 ppm); for Average number of Eimeria spp. oocysts/g faeces, day after hatch 14 / Average number of Eimeria spp. oocysts/g faeces, day after hatch 15 / Average number of Eimeria spp. oocysts/g faeces, day after hatch 16 / Average number of Eimeria spp. oocysts/g faeces, day after hatch 17 / Average number of Eimeria spp. oocysts/g faeces, day after hatch 18 / Average number of Eimeria spp. oocysts/g faeces, day after hatch 19 / Average number of Eimeria spp. oocysts/g faeces, day after hatch 21: infected day 10; for Average number of Eimeria spp. oocysts/g faeces, day after hatch 15: day 15 after hatch; for Average number of Eimeria spp. oocysts/g faeces, day after hatch 16: day 16 after hatch; for Average number of Eimeria spp. oocysts/g faeces, day after hatch 17: day 17 after hatch; for Average number of Eimeria spp. oocysts/g faeces, day after hatch 18: day 18 after hatch; for Average number of Eimeria spp. oocysts/g faeces, day after hatch 19: day 19 after hatch; for Average number of Eimeria spp. oocysts/g faeces, day after hatch 21: day 21 after hatch; for Mean body weight: final weight; for Mean body weight / Mean amount of feed consumed: infected chickens; for Mean amount of feed consumed: mean total feed per bird; for Average number of Eimeria spp. oocysts/g faeces, Total: total of days 14-21 after hatch
Procedure: The anticoccidial activity of the present compounds as prophylactic agents was evaluated in vivo on […] one day old (1 day after hatch) chickens of Habbared X breed. The chickens were divided into four groups of 20 birds each, and each group was located in a separate pen (1 m×1 m). The chickens were then fed with unmedicated food up to day 7 after hatch. Fresh water was supplied ad libitum .
On day 8 after hatch, the four groups were fed as follows (1 ppm=1 mg drug/kg feed): • Group #1: feed containing JA 39 (100 ppm); • Group #2: feed containing JA 42 (100 ppm); • Group #3: feed containing Coxistac (60 ppm), a known anticoccidial agent (see U.S. Pat. No. 3,857,948);
Group #4: feed containing no drug (control group).
The chickens were fed as above on day 8 and 9 after hatch. On day 10 after hatch, each chicken was infected orally by 6 000-7 000 oocysts containing a mixture of 5 mature sporulated strains, namely Eimeria acervulina, E. maxima, E. necatrix, E. tenella and E. brunetti. The groups #1-3 received drug as above from day 10 to 21 after hatch.
From day 14 to 21 after hatch, fresh fecal droplets were collected and examined daily. The average number of oocysts/g faeces was then calculated in accordance with the so-called Mc-Master technique (Soulsby, E. J., Helminths, Arthropods & Protozoa of domesticated animals, p. 789, 6th Ed., Williams & Wilkins Co. Baltimore (USA), Tindall & Cassell Ltd., London, 1968). The final weight of and mean total amount of feed consumed by each bird were also examined, and the results are summarized in Table 8 hereinbelow.

SMILES | MIC (Bacillus cereus) [µg/mL] | MIC (Streptococcus faecium) [µg/mL] | MIC [1] [µg/mL] | MIC [2] [µg/mL] | MIC [3] [µg/mL] | MIC [4] [µg/mL] | MIC [5] [µg/mL] | antibacterial activity against gram-positive bacteria compared to that of enrofloxacin (gram-positive bacteria) | prophylactic anticoccidial effect (in words) [6] | antibacterial activity against gram-negative bacteria compared to that of enrofloxacin [7] | MIC (M. gallisepticum) [µg/mL] | anticoccidial effect (in words) [8] | Average number of Eimeria spp. oocysts/g faeces, day after hatch 14 [8] [oocysts/g faeces] | Average number of Eimeria spp. oocysts/g faeces, day after hatch 15 [8] [oocysts/g faeces] | Average number of Eimeria spp. oocysts/g faeces, day after hatch 16 [8] [oocysts/g faeces] | Average number of Eimeria spp. oocysts/g faeces, day after hatch 17 [8] [oocysts/g faeces] | Average number of Eimeria spp. oocysts/g faeces, day after hatch 18 [8] [oocysts/g faeces] | Average number of Eimeria spp. oocysts/g faeces, day after hatch 19 [8] [oocysts/g faeces] | Average number of Eimeria spp. oocysts/g faeces, day after hatch 21 [8] [oocysts/g faeces] | Mean body weight [8] [g] | further results
COc1ccc(S(=O)(=O)N2CCN(c3cc4c(cc3F)c(=O)c(C(=O)O)cn4C3CC3)CC2)cc1 [JA 4, 1-cyclopropyl-6-fluoro-7-{4-[(4-methoxyphenyl)sulfonyl]-1-piperazinyl}-4-oxo-1,4-dihydro-3-quinolinecarboxylic acid] | 0.01 (≈ 0.0199 µM) | 0.06 (≈ 0.12 µM) | 0.01 (≈ 0.0199 µM) | 0.03 (≈ 0.0598 µM) | 0.01 (≈ 0.0199 µM) | 0.25 (≈ 0.498 µM) | 0.06 (≈ 0.12 µM) | clearly superior |  |  |  |  |  |  |  |  |  |  |  |  | 
O=C(O)c1cn(C2CC2)c2cc(N3CCN(S(=O)(=O)C(F)(F)F)CC3)c(F)cc2c1=O [JA 12, 1-cyclopropyl-6-fluoro-4-oxo-7-{4-[(trifluoromethyl)sulfonyl]-1-piperazinyl}-1,4-dihydro-3-quinolinecarboxylic acid] | 0.06 (≈ 0.129 µM) | 1 (≈ 2.16 µM) | 0.12 (≈ 0.259 µM) | 0.12 (≈ 0.259 µM) | 0.03 (≈ 0.0647 µM) | 0.5 (≈ 1.08 µM) | 0.12 (≈ 0.259 µM) |  | very similar to that of JA 39 | roughly equal to that of enrofloxacin | 0.12 (≈ 0.259 µM) |  |  |  |  |  |  |  |  |  | 
O=C(O)c1cn(C2CC2)c2cc(N3CCN(c4cncc(Cl)n4)CC3)c(F)cc2c1=O [JA 39, 7-[4-(6-chloro-2-pyrazinyl)-1-piperazinyl]-1-cyclopropyl-6-fluoro-4-oxo-1,4-dihydro-3-quinolinecarboxylic acid] | 0.01 (≈ 0.0225 µM) | 0.25 (≈ 0.563 µM) | 0.06 (≈ 0.135 µM) | 0.01 (≈ 0.0225 µM) | 0.03 (≈ 0.0676 µM) | 1 (≈ 2.25 µM) | 0.12 (≈ 0.27 µM) | clearly superior | essentially the same as those reported for the trials with the chickens of Habbared X breed |  |  | excellent anticoccidial effect | 0.0 | 4000 | 5000 | 3000 | 0.0 | 0.0 | 0.0 | 68.2 | Mean amount of feed consumed [8]: 81 g; Average number of Eimeria spp. oocysts/g faeces, Total [8]: 12000 oocysts/g faeces
O=C(O)c1cn(C2CC2)c2cc(N3CCN(c4cccc(Cl)n4)CC3)c(F)cc2c1=O [JA 42, 7-[4-(6-chloro-2-pyridinyl)-1-piperazinyl]-1-cyclopropyl-6-fluoro-4-oxo-1,4-dihydro-3-quinolinecarboxylic acid] | 0.06 (≈ 0.135 µM) | 0.25 (≈ 0.564 µM) | 0.01 (≈ 0.0226 µM) | 0.008 (≈ 0.0181 µM) | 0.06 (≈ 0.135 µM) | 1 (≈ 2.26 µM) | 0.03 (≈ 0.0677 µM) |  | essentially the same as those reported for the trials with the chickens of Habbared X breed | roughly equal to that of enrofloxacin | 0.25 (≈ 0.564 µM) | excellent anticoccidial effect | 0.0 | 4000 | 6000 | 3000 | 0.0 | 0.0 | 0.0 | 73.7 | Mean amount of feed consumed [8]: 91 g; Average number of Eimeria spp. oocysts/g faeces, Total [8]: 13000 oocysts/g faeces
